Where a name gives a salt, the structure may show the parent alone.
What was measured:
human COX-2 = biological target: T1, human COX-2 (Homo sapiens, UniProt P35354); assay: Inhibition of COX-2 activity (PGE2 production after arachidonic acid) in 143.98.2 osteosarcoma cells; type: cell-based; conditions: 0.1 μM test compound, PGE2 production after 10 μM arachidonic acid
T1 construct: human COX-2 (143.98.2 from human osteosarcoma), respectively; endogenous in cells; host or cells: 143.98.2 (human osteosarcoma)
T1 sequence (P35354 18-604): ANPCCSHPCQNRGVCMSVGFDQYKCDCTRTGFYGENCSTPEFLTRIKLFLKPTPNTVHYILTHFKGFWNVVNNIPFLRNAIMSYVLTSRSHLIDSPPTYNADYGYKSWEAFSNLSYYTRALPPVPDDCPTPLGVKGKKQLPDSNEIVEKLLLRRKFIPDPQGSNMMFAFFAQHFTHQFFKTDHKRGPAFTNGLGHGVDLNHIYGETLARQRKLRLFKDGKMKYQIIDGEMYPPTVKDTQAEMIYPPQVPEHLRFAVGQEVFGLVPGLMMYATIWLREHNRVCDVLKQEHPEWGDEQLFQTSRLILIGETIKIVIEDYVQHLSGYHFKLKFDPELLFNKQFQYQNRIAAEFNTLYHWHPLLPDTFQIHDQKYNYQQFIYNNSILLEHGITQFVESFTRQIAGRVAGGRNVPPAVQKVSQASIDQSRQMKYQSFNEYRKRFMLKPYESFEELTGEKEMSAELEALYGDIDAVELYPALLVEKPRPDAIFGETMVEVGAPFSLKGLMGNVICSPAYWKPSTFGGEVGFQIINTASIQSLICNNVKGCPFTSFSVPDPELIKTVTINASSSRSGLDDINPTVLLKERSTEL
Description: (§1) Inhibition of cyclooxygenase-1 (COX-1) and cyclooxygenase-2 (COX-2) Activity in Human Cell Lines
(§2) The inhibition of COX-1 and COX-2 is determined by assessing the PGE2 production after stimulation with arachidonic acid in cell lines expressing human COX-1 (U-937 from human histiocitic lymphoma) and human COX-2 (143.98.2 from human osteosarcoma), respectively.
(§3) The osteosarcoma-derived cells were cultured in 1 mL of DMEM culture medium supplemented with 10% fetal calf serum, in 24-well multidishes until confluence. U-937 cells were cultured in RPMI medium supplemented with 10% fetal calf serum in flasks.
(§4) To evaluate COX-2 activity, the medium was removed and replaced with Hepes-buffered saline solution (HBSS) without Ca^2+/Mg^2+ (2×10^5 cells/well). To evaluate COX-1 activity, the medium was removed and U-937 cells were resuspended to a final density of 3×10^6 cells/mL in HBSS without Ca^2+/Mg^2+ (1 mL/well, in 24-well multidishes). 1 μL of a solution of the test compound dissolved in DMSO or vehicle was added, and the samples were incubated for 15 min at 37° C. (5% CO2 and 95% humidity). Arachidonic acid was added (final concentration: 10 μM) and the samples were incubated for 10 min more. Next the reactions were quenched by adding indomethacin (8 mM, 30 μL). The amount of PGE2 in the supernatant was determined by specific enzymatic immunoassay (Kit Prostaglandin E2, Biotrak EIA system RPN222, Amersham Pharmacia Biotech). All the assays were performed in triplicate.
(§5) The results obtained with representative compounds of the present invention are shown in the following table, where the % of inhibition of COX-1 and COX-2 activity at a concentration of 0.1 μM of test compound are reported.

human COX-1 = biological target: T2, human COX-1 (Homo sapiens, UniProt P23219); assay: Inhibition of COX-1 activity (PGE2 production after arachidonic acid) in U-937 cells; type: cell-based; conditions: 0.1 μM test compound, PGE2 production after 10 μM arachidonic acid
T2 construct: cell lines expressing human COX-1 (U-937 from human histiocitic lymphoma); endogenous in cells; host or cells: U-937 (human histiocytic lymphoma)
Description: as §1, §2, §3, §4, §5

T2 sequence (P23219 24-599): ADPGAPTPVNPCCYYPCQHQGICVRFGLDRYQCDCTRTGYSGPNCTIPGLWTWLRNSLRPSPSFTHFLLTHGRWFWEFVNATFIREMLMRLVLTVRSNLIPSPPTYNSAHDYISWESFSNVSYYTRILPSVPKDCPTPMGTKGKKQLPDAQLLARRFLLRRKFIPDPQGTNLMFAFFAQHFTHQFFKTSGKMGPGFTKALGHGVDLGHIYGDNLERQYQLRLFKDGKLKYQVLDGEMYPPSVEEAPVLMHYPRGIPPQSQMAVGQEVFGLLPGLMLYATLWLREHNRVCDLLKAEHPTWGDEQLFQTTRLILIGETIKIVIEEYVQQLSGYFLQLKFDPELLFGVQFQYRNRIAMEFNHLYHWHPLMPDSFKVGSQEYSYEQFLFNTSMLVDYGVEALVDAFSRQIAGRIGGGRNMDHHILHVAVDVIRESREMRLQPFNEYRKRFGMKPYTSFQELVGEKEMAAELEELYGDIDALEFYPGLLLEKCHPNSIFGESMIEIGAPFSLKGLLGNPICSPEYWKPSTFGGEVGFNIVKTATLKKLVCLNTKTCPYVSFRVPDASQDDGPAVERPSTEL

| inhibition at 0.1 µM (human COX-2) [%] | inhibition at 0.1 µM (human COX-1) [%] | Structure (SMILES) |
| --- | --- | --- |
| 61 | 0 | CS(=O)(=O)c1ccc(-n2cnc(Cl)c2-c2ccc(N3CCCC3)cc2)cc1 [Example 1, 4-Chloro-1-(4-methylsulfonylphenyl)-5-[4-(1-pyrrolidinyl)phenyl]imidazole] |
| 75 | 11 | CS(=O)(=O)c1ccc(-n2cnc(Cl)c2-c2ccc(N3CCC(O)C3)cc2)cc1 (stereo not shown) [Example 3, 4-Chloro-5-[4-(3-hydroxypyrrolidin-1-yl)phenyl]-1-(4-methylsulfonylphenyl)imidazole] |
| 72 | 0 | CC1CCCN1c1ccc(-c2c(Cl)ncn2-c2ccc(S(C)(=O)=O)cc2)cc1 (stereo not shown) [Example 4, 4-Chloro-5-[4-(2-methylpyrrolidin-1-yl)phenyl]-1-(4-methylsulfonylphenyl)imidazole] |
| 70 | 0 | NS(=O)(=O)c1ccc(-n2cnc(Cl)c2-c2ccc(N3CCCC3)cc2)cc1 [Example 5, 4-[4-Chloro-5-[4-(1-pyrrolidinyl)phenyl]imidazol-1-yl]benzenesulfonamide, hydrochloride] |
| 89 | 0 | CS(=O)(=O)c1ccc(-n2cnc(Cl)c2-c2ccc(N3CCCC3)c(Cl)c2)cc1 [Example 6, 4-Chloro-5-[3-chloro-4-(1-pyrrolidinyl)phenyl]-1-(4-methylsulfonylphenyl)imidazole] |
| 72 | 0 | CS(=O)(=O)c1ccc(-n2cnc(Cl)c2-c2ccc(N3C(=O)CCC3=O)cc2)cc1 [Example 7, 4-Chloro-1-(4-methylsulfonylphenyl)-5-[4-(2,5-dioxopyrrolidin-1-yl)phenyl]imidazole] |
| 76 | 0 | CS(=O)(=O)c1ccc(-n2cnc(Cl)c2-c2ccc(N3CC=CC3=O)cc2)cc1 [Example 8, 4-Chloro-1-(4-methylsulfonylphenyl)-5-[4-(2-oxo-3-pyrrolin-1-yl)phenyl]imidazole] |
| 72 | 0 | CS(=O)(=O)c1ccc(-n2cnc(Cl)c2-c2ccc(N3CCOC3=O)cc2)cc1 [Example 9, 4-Chloro-1-(4-methylsulfonylphenyl)-5-[4-(2-oxooxazolidin-3-yl)phenyl]imidazole] |
| 61 | 0 | CS(=O)(=O)c1ccc(-n2cnc(Cl)c2-c2ccc(N3CCCC3=O)cc2)cc1 [Example 10, 4-Chloro-1-(4-methylsulfonylphenyl)-5-[4-(2-oxopyrrolidin-1-yl)phenyl]imidazole] |
| 79 | 0 | CS(=O)(=O)c1ccc(-n2cnc(Cl)c2-c2ccc(N3CCCC3)nc2)cc1 [Example 12, 4-Chloro-1-(4-methylsulfonylphenyl)-5-[6-(1-pyrrolidinyl)-3-pyridyl]imidazole] |
| 49 | 0 | CS(=O)(=O)c1ccc(C2=C(c3ccc(N4CC=CC4=O)cc3)C(=O)OC2)cc1 [Example 14, 4-(4-Methylsulfonylphenyl)-3-[4-(2-oxo-3-pyrrolin-1-yl)phenyl]-5H-furan-2-one] |
| 81 | 17 | CS(=O)(=O)c1ccc(C2=C(c3ccc(N4CCCC4)cc3)C(=O)OC2)cc1 [Example 15, 4-(4-Methylsulfonylphenyl)-3-[4-(1-pyrrolidinyl)phenyl]-5H-furan-2-one] |
| 93 | 0 | CS(=O)(=O)c1ccc(C2=C(c3ccc(N4CCCC4)c(Cl)c3)C(=O)OC2)cc1 [Example 16, 3-[3-Chloro-4-(1-pyrrolidinyl)phenyl]-4-(4-methylsulfonylphenyl)-5H-furan-2-one] |
| 81 | 0 | CS(=O)(=O)c1ccc(C2=C(c3ccc(N4CCCC4)nc3)C(=O)OC2)cc1 [Example 17, 4-(4-Methylsulfonylphenyl)-3-[6-(1-pyrrolidinyl)-3-pyridyl]-5H-furan-2-one] |
